Experimental findings from patent US20240025907A1, “QUINAZOLINE PAN-KRas INHIBITORS” (Mirati Therapeutics, Inc., priority 2022, published 2024) are described below.

Common to all, as to type: cell-based
In assay [1] the test system is KRas-mediated Phosphorylation of ERK in HCT116 cells. Nature of the assay: Cisbio HTRF pERK assay, HCT116 cells. To be noted: single point at 100 nM; for inhibition at 0.1 µM: Homo sapiens, HCT-116, HCT116 cells; for Inhibition (HTRF % at 100 nM) of KRas-mediated Phosphorylation of ERK, HCT116: HCT116 cells, 0.1 µM.
The subject of assay [2] is KRas-mediated Phosphorylation of ERK in H358 cells. Nature of the assay: Cisbio HTRF pERK assay, H358 cells. To be noted: Homo sapiens, NCI-H358, H358 cells, single point at 100 nM. Background: Time-resolved FRET reads energy transfer from a long-lived donor to a nearby acceptor.
The subject of assay [3] is KRas-mediated Phosphorylation of ERK in A549 cells. Nature of the assay: Cisbio HTRF pERK assay, A549 cells. The conditions noted are these: Homo sapiens, A549, A549 cells, single point at 100 nM.
In assay [4] the test system is KRas-mediated Phosphorylation of ERK in H460 cells. As to the kind of experiment: Cisbio HTRF pERK assay, H460 cells. The conditions noted are these: single point at 100 nM; for inhibition at 0.1 µM: Homo sapiens, NCI-H460, H460 cells; for Inhibition (HTRF % at 100 nM) of KRas-mediated Phosphorylation of ERK, H460: H460 cells, 0.1 µM.

As to `CCc1c(F)ccc2cc(O)cc(-c3c(F)cc4c(N5CCCC6(CC(=O)NC6=O)C5)nc(OC[C@@]56CCCN5C[C@H](F)C6)nc4c3F)c12` (stereo partly drawn) [Example 62, 7-(7-(8-ethyl-7-fluoro-3-hydroxynaphthalen-1-yl)-6,8-difluoro-2-(((2R,7aS)-2-fluorotetrahydro-1H-pyrrolizin-7a(5H)-yl)methoxy)quinazolin-4-yl)-2,7-azaspiro[4.5]decane-1,3-dione], the inhibition (usually the change of the read-out against control, counted positive when it falls) at 0.1 µM in assay [1] came out at 92%; in assay [2] it was 96%; in assay [3], 72%; in assay [4], 98%.

With `CCc1c(F)ccc2cc(O)cc(-c3c(F)cc4c(N5CCCn6nc(C(=O)N7CCOCC7)c(Cl)c6C5)nc(OC[C@@]56CCCN5C[C@H](F)C6)nc4c3F)c12` [Example 79, (3-chloro-5-(7-(8-ethyl-7-fluoro-3-hydroxynaphthalen-1-yl)-6,8-difluoro-2-(((2R,7aS)-2-fluorohexahydro-1H-pyrrolizin-7a-yl)methoxy)quinazolin-4-yl)-5,6,7,8-tetrahydro-4H-pyrazolo[1,5-a][1,4]diazepin-2-yl)(morpholino)methanone], the inhibition at 0.1 µM amounted to 64% in assay [1], 95% in assay [2], 60% in assay [3] and 85% in assay [4].

Consider `CCc1c(F)ccc2cc(O)cc(-c3c(F)cc4c(N5C[C@@H]6C[C@H](C5)[C@H](O)C6)nc(OC[C@@]56CCCN5C[C@H](F)C6)nc4c3F)c12` (atropisomer, axis not shown; (aS)) [Example 67, (1R,5R,6R)-3-((R)-7-(8-ethyl-7-fluoro-3-hydroxynaphthalen-1-yl)-6,8-difluoro-2-(((2R,7aS)-2-fluorohexahydro-1H-pyrrolizin-7a-yl)methoxy)quinazolin-4-yl)-3-azabicyclo[3.2.1]octan-6-ol], for which the “Inhibition (HTRF % at 100 nM) of KRas-mediated Phosphorylation of ERK, HCT116” value (from here on “Inhibition (HTRF % at 100 nM) … HCT116”) in assay [1] amounted to 73%. For the same compound, the inhibition at 0.1 µM in assay [2] was found to be 94%; in assay [3] it was 81%. For the same compound, the “Inhibition (HTRF % at 100 nM) of KRas-mediated Phosphorylation of ERK, H460” value (“Inhibition (HTRF % at 100 nM) … H460” for short) in assay [4] came out at 95%.

`CCc1c(F)ccc2cc(O)cc(-c3c(F)cc4c(N5CCCn6nc(C(=O)N(C)C)c(C)c6C5)nc(OC[C@@]56CCCN5C[C@H](F)C6)nc4c3F)c12` [Example 80, 5-(7-(8-ethyl-7-fluoro-3-hydroxynaphthalen-1-yl)-6,8-difluoro-2-(((2R,7aS)-2-fluorohexahydro-1H-pyrrolizin-7a-yl)methoxy)quinazolin-4-yl)-N,N,3-trimethyl-5,6,7,8-tetrahydro-4H-pyrazolo[1,5-a][1,4]diazepine-2-carboxamide]: the inhibition at 0.1 µM in assay [1] came out at 71%; in assay [2], 95%; in assay [3] it was 83%; in assay [4], 89%.

As for `CCc1c(F)ccc2cc(O)cc(-c3ccc4c(N5CCOCC(C)(O)C5)nc(OCC5(CN(C)C)CC5)nc4c3F)c12` (centres unmarked) [Example 42, 4-(2-((1-((dimethylamino)methyl)cyclopropyl)methoxy)-7-(8-ethyl-7-fluoro-3-hydroxynaphthalen-1-yl)-8-fluoroquinazolin-4-yl)-6-methyl-1,4-oxazepan-6-ol], the inhibition at 0.1 µM in assay [1] was found to be 30%; in assay [2] it was 71%; in assay [3], 39%; in assay [4] it was 59%.

For the compound `CCc1c(F)ccc2cc(O)cc(C3Cc4nc(OC[C@@]56CCCN5C[C@H](F)C6)nc(N5CCC[C@@](C)(O)C5)c4CO3)c12` (stereo partly drawn) [Example 85, (3R)-1-(7-(8-ethyl-7-fluoro-3-hydroxynaphthalen-1-yl)-2-(((2R,7aS)-2-fluorotetrahydro-1H-pyrrolizin-7a(5H)-yl)methoxy)-7,8-dihydro-5H-pyrano[4,3-d]pyrimidin-4-yl)-3-methylpiperidin-3-ol], the inhibition at 0.1 µM is -12% in assay [1], -7% in assay [2], 21% in assay [3] and 16% in assay [4].

Consider `CCc1c(F)ccc2cc(O)cc(-c3c(F)cc4c(N5C[C@@H]6C[C@H](C5)[C@H](O)C6)nc(OC[C@@]56CCCN5C[C@H](F)C6)nc4c3F)c12` (atropisomer, axis not shown; (aS)) [Example 68, (1R,5R,6R)-3-((S)-7-(8-ethyl-7-fluoro-3-hydroxynaphthalen-1-yl)-6,8-difluoro-2-(((2R,7aS)-2-fluorohexahydro-1H-pyrrolizin-7a-yl)methoxy)quinazolin-4-yl)-3-azabicyclo[3.2.1]octan-6-ol], for which the “Inhibition (HTRF % at 100 nM) … HCT116” value in assay [1] was found to be 8%. Also, the “Inhibition (HTRF % at 100 nM) … H460” value in assay [4] was 14%.

Consider `CCc1c(F)ccc2cc(O)cc(-c3ccc4c(N5CC6C(=O)NC(=O)C6C5)nc(OCC5(CN(C)C)CC5)nc4c3F)c12` (centres unmarked) [Example 39, 5-(2-((1-((dimethylamino)methyl)cyclopropyl)methoxy)-7-(8-ethyl-7-fluoro-3-hydroxynaphthalen-1-yl)-8-fluoroquinazolin-4-yl)tetrahydropyrrolo[3,4-c]pyrrole-1,3(2H,3aH)-dione], for which the inhibition at 0.1 µM was determined as 3% in assay [1] and 11% in assay [4].

Take `CCc1c(F)ccc2cc(O)cc(-c3c(F)cc4c(N5CCC[C@@](C)(O)C5)nc(OCC56CCCN5CCC6)nc4c3F)c12` [Example 48, (3R)-1-(7-(8-ethyl-7-fluoro-3-hydroxynaphthalen-1-yl)-6,8-difluoro-2-((tetrahydro-1H-pyrrolizin-7a(5H)-yl)methoxy)quinazolin-4-yl)-3-methylpiperidin-3-ol]: the inhibition at 0.1 µM stood at 50% in assay [1] and 75% in assay [4].

As for `CCc1c(F)ccc2cc(O)cc(-c3c(F)cc4c(N5CCOC[C@@](C)(O)C5)nc(OC[C@@]56CCCN5C[C@H](F)C6)nc4c3F)c12` (atropisomer, axis not shown; (aS)) [Example 65, (S)-4-((S)-7-(8-ethyl-7-fluoro-3-hydroxynaphthalen-1-yl)-6,8-difluoro-2-(((2R,7aS)-2-fluorohexahydro-1H-pyrrolizin-7a-yl)methoxy)quinazolin-4-yl)-6-methyl-1,4-oxazepan-6-ol], the “Inhibition (HTRF % at 100 nM) … HCT116” value in assay [1] stood at 16%. For the same compound, the “Inhibition (HTRF % at 100 nM) … H460” value in assay [4] is given as 1%.

Turning to `O=S1(=O)NCC2(CCCN(c3nc(OC[C@@]45CCCN4C[C@H](F)C5)nc4c(F)c(-c5cc(O)cc6ccc(F)c(Cl)c56)c(F)cc34)C2)N1` (stereo partly drawn) [Example 45, 7-(7-(8-chloro-7-fluoro-3-hydroxynaphthalen-1-yl)-6,8-difluoro-2-(((2R,7aS)-2-fluorotetrahydro-1H-pyrrolizin-7a(5H)-yl)methoxy)quinazolin-4-yl)-2-thia-1,3,7-triazaspiro[4.5]decane 2,2-dioxide], the values for the inhibition at 0.1 µM in assay [1] and in assay [4] were 86% and 94%, respectively.

Take `CCc1c(F)ccc2cc(O)cc(-c3c(F)cc4c(N5CCOC[C@@](C)(O)C5)nc(OC[C@@]56CCCN5C[C@H](F)C6)nc4c3F)c12` (atropisomer, axis not shown; (aS)) [Example 66, (S)-4-((R)-7-(8-ethyl-7-fluoro-3-hydroxynaphthalen-1-yl)-6,8-difluoro-2-(((2R,7aS)-2-fluorohexahydro-1H-pyrrolizin-7a-yl)methoxy)quinazolin-4-yl)-6-methyl-1,4-oxazepan-6-ol]: the “Inhibition (HTRF % at 100 nM) … HCT116” value in assay [1] was found to be 97%. The “Inhibition (HTRF % at 100 nM) … H460” value in assay [4] came to 97%.

`CCc1c(F)ccc2cc(O)cc(-c3c(F)cc4c(N5CCCC6(CNC(=O)N6)C5)nc(OCC5(CN(C)C)CC5)nc4c3F)c12` (centres unmarked) [Example 49, 7-(2-((1-((dimethylamino)methyl)cyclopropyl)methoxy)-7-(8-ethyl-7-fluoro-3-hydroxynaphthalen-1-yl)-6,8-difluoroquinazolin-4-yl)-1,3,7-triazaspiro[4.5]decan-2-one]: the inhibition at 0.1 µM in assay [1] was 13%; in assay [4], 23%.

Turning to `CCc1c(F)ccc2cc(O)cc(-c3c(F)cc4c(N5CCCn6nc(C(=O)N(C)C)cc6C5)nc(OC[C@@]56CCCN5C[C@H](F)C6)nc4c3F)c12` (atropisomer, axis not shown; (aS)) [Example 63, 5-((R)-7-(8-ethyl-7-fluoro-3-hydroxynaphthalen-1-yl)-6,8-difluoro-2-(((2R,7aS)-2-fluorohexahydro-1H-pyrrolizin-7a-yl)methoxy)quinazolin-4-yl)-N,N-dimethyl-5,6,7,8-tetrahydro-4H-pyrazolo[1,5-a][1,4]diazepine-2-carboxamide], the “Inhibition (HTRF % at 100 nM) … HCT116” value in assay [1] is recorded as 61%. Also, in assay [4], the “Inhibition (HTRF % at 100 nM) … H460” value was found to be 82%.

On to `CCc1c(F)ccc2cc(O)cc(-c3c(F)cc4c(N5CCCn6nc(C(=O)NC(C)C)cc6C5)nc(OC[C@@]56CCCN5C[C@H](F)C6)nc4c3F)c12` [Example 59, 5-(7-(8-ethyl-7-fluoro-3-hydroxynaphthalen-1-yl)-6,8-difluoro-2-(((2R,7aS)-2-fluorotetrahydro-1H-pyrrolizin-7a(51)-yl)methoxy)quinazolin-4-yl)-N-isopropyl-5,6,7,8-tetrahydro-4H-pyrazolo[1,5-a][1,4]diazepine-2-carboxamide], for which the inhibition at 0.1 µM was determined as 23% in assay [1] and 36% in assay [4].

With `CCc1c(F)ccc2cc(O)cc(-c3c(O)cc4c(N(C)C)nc(OC[C@@]56CCCN5C[C@H](F)C6)nc4c3F)c12` [Example 28, 4-(dimethylamino)-7-(8-ethyl-7-fluoro-3-hydroxynaphthalen-1-yl)-8-fluoro-2-(((2R,7aS)-2-fluorotetrahydro-1H-pyrrolizin-7a(5H)-yl)methoxy)quinazolin-6-ol], the values for the inhibition at 0.1 µM in assay [1] and in assay [4] were 9% and 8%, respectively.
